Experimental data taken from US20160060642A1, “G Protein Coupled Receptor Libraries” (COMMONWEALTH SCIENTIFIC AND INDUSTRIAL RESEARCH ORGANISATION, priority 2013, published 2016).

Assays:
Format in all cases: cell-based
[1] = target: odr-10 non-functional mutant H110Y (Caenorhabditis elegans, UniProt Q18807, H110Y); conditions: 500 μM diacetyl; wells H11 and H12
[2] = target: T1, ODR-10 (Caenorhabditis elegans, UniProt Q18807); assay: 96-well LacZ/ONPG screen, positive control odr-10; conditions: 500 μM diacetyl
T1 construct: expressed in transfected cells; host or cells: Saccharomyces cerevisiae Cyb-KAGMM (ste2- sst2- far1- gpa1-, gpa1/odr-3 chimaera integrated)
T1 sequence (Q18807 1-339): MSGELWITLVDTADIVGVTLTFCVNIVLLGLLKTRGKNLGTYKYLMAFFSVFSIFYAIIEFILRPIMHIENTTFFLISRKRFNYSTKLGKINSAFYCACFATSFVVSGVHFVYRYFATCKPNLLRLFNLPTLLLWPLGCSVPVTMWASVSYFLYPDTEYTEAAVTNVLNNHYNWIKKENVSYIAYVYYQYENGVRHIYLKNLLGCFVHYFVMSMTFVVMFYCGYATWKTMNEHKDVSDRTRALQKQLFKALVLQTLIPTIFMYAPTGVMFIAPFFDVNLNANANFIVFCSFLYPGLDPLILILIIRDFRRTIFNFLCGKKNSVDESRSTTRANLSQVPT

[3] = target: T1, ODR-10; assay: GFP reporter assay in Cyb-KAGMM yeast expressing ODR-10
[4] = target: T1, ODR-10; assay: Multiwell (48/96 well) LacZ/ONPG assay of yeast screening strain transformed with odr-10; conditions: for Abs414 reading after 3 hours: 500 μM diacetyl
Description: The method was as follows ([…] from Brouchon-[…] et al., 2003): • 1 mL of Saccharomyces cerevisiae Minimal Medium (SCMM)-His, -Leu was inoculated with a single colony of the screening strain transformed with odr-10 (lacZ/[…]^31 gpa1^-) at Abs600 nm=1, in a 96-well deep well plate. • The plate was incubated overnight (18 hours) at 30° C. with shaking at 900 rpm. • The culture from the well was diluted into fresh wells (96 or 48 well plate) to a final volume of 1 mL at the following yeast cell optical densities: • 1. Abs600=1 • 2. Abs600=0.5 • 3. Abs600=0.5 • Wells 1 and 2 above were induced with 500 μM of a diacetyl solution (made up fresh and kept on ice); 1M: 87 μL diacetyl+913 μL water; then diluted 1/10 in water and 5 μL added to 1 mL cells for a final concentration of 500 μM). All wells were incubated for 30° C. for 18 hours with shaking at 900 rpm. • The plate was centrifuged to pellet the cells, the supernatant was aspirated off and discarded and the pellet was resuspended in 120 μL of lysis buffer (100 mM sodium phosphate buffer, pH 7.5 (consisting of 82 mM Na2HPO4 and […] with 0.1% (w/v) sodium dodecyl sulfate). Initial absorbance was read at 414 nm in a plate-reading spectrophotometer. • The plate was shaken at 900 rpm for 10 min at 30° C. • Thirty microlitres of 2.5 mM o-nitrophenyl-β-D-galactopyranoside (ONPG) (10 mg ONPG dissolved in 130 μL dimethyl formamide is 250 mM, then dilute 1/100 in water for final concentration, which is 2.5 mM) was added and the plate was incubated at room temperature for between 5 minutes and 3 hours. • Eighty microlitres of a 1M Na2CO3 solution was added and the absorbance was read in a plate-based spectrophotometer, either at 414 nm or a spectrum was recorded for each well over the visible region. The assay was repeated with a range of different dilutions (1⁄4 to 1/20) of the starting yeast culture in the wells of either 96 or 48 deep-well plates (the former can contain a total of 2 mL and the latter 5 mL.) Normally dilutions required to reach Abs600 nm=1 are in the range of 1⁄2 to 1⁄4. This experiment probed a set of higher dilutions. Incubation was for 17 hours at 30° C. and 900 rpm shaking. […] In 96 well plates, the higher cell dilutions consistently gave the better diacetyl-induced to control ratios (FIG. 11). The best ratio was in the case of the 96-well plate and the 1/20 dilution where the diacetyl-induced absorbance was 0.481 and the uninduced control was 0.079.

[5] = target: T1, ODR-10; assay: LacZ reporter assay (ONPG workup) in Cyb-KAGMM yeast expressing ODR-10; conditions: ONPG substrate

CC(=O)C(C)=O [diacetyl, butane-2,3-dione]
response (spectra) [1]: did not show any response | response (yellow colour, spectral peak at 420 nm) ([2]; clone in well H9): responds | response (colour or spectra) ([2]; clone in well H10): did not show any response | GFP fluorescence emission relative to uninduced ([3]; 50 μM diacetyl, pGK:Odr10 with Fig2:GFP (FIG. 5 panel C)): below the uninduced condition | difference between the peak GFP responses with ODR-10 expression and for the vector control ([3]; 500 μM diacetyl, best case (FIG. 5a, pGK:Odr10 with Fus1:GFP), 7 hrs induction): less than a twofold difference | Abs414 reading after 3 hours ([4]; Abs600 nm=0.5 starting condition): 0.521 | Abs414 reading after 3 hours ([4]; Abs600 nm=1 starting condition): 0.247 | diacetyl-induced absorbance (Abs414 nm) ([4]; 96-well plate, 1/20 dilution of starting culture, 17 hours incubation): 0.481 | induction of lacZ ([4]; dilutions 1/4 to 1/20 of starting culture in 96 or 48 deep-well plates): detected in all the conditions except the 1/20 cell dilution in the 48 well plate | maximum increase in signal over background ([5]; 700 μM diacetyl, LacZ driven by FUS-2 (so in the source), FIG. 8): approximately 6 fold | maximum ligand-induced increase in signal ([5]; 1 mM diacetyl, LacZ under FUS-1 promoter, FIG. 9): approximately 2.5 fold
